Measured values published in US20250197376A1, “PYRAZINE AMIDE DERIVATIVES” (Novartis AG, priority 2022, published 2025).

What follows are molecules tested on 3D7 P. falciparum strain (assay: P. falciparum 3D7 parasite proliferation assay (SYBR Green)). Settings: Plasmodium falciparum, Erythrocyte; 3D7 P. falciparum infected human erythrocytes, 72 hours, SYBR Green fluorescence; read-out: Pf3D7 Activity.
Format: cell-based
Protocol: The following assay illustrates the invention without in any way limiting the scope of the invention. This parasite proliferation assay measures the increase in parasite DNA content using a DNA intercalating dye, SYBR Green®. 3D7 P. falciparum strain is grown in complete culturing media until parasitemia reaches 3% to 8% with O+ human erythrocytes. 20 μl of screening media is dispensed into 384 well assay plates. 50 nl of compounds of the invention (in DMSO), including antimalarial controls (mefloquine, pyrimethamine and artemisinin), are then transferred into the assay plates, as well as DMSO alone to serve as a negative control for inhibition. Then 30 μl of a suspension of a 3D7 P. falciparum infected erythrocytes in screening media is dispensed into the assay plates such that the final hematocrit is 2.5% with a final parasitemia of 0.3%. The plates are placed in a 37° C. incubator for 72 hours in a low oxygen environment containing 93% N2, 4% CO2, and 3% O2 gas mixture. 10 μl of lysis buffer (saponin, triton-X, EDTA) containing a 10× solution of SYBR Green […] in RPMI media is dispensed into the plates. The plates are lidded and kept at room temperature overnight for the lysis of the infected red blood cells. The fluorescence intensity is measured (excitation […], emission 530 nm) using the Envision™ system (Perkin Elmer). The percentage inhibition of 50%, EC50, is calculated for each compound.
Molecule `Cc1c(-c2cncc(C(=O)NCCC(C)(C)N)n2)[nH]c2ccccc12` [Example 85, N-(3-amino-3-methylbutyl)-6-(3-methyl-1H-indol-2-yl)pyrazine-2-carboxamide] has an EC50 of 10 to 100 nM. `CN(C)C(=O)c1cc2[nH]c(-c3cncc(C(=O)NCC(C)(C)N)n3)cc2s1` [Example 109, 5-(6-((2-amino-2-methylpropyl)carbamoyl)pyrazin-2-yl)-N,N-dimethyl-4H-thieno[3,2-b]pyrrole-2-carboxamide] gave an EC50 of over 100 nM. For `COc1ccc2[nH]c(-c3cncc(C(=O)NCC(C)(C)N)n3)cc2c1` [Example 32, N-(2-amino-2-methylpropyl)-6-(5-methoxy-1H-indol-2-yl)pyrazine-2-carboxamide], the EC50 was over 100 nM. `CC(C)(N)CNC(=O)c1cncc(-c2cc3cc(OCc4ccccc4)ccc3[nH]2)n1` [Example 22, N-(2-amino-2-methylpropyl)-6-(5-(benzyloxy)-1H-indol-2-yl)pyrazine-2-carboxamide] showed an EC50 of 10 to 100 nM. `COc1cc2[nH]c(-c3cncc(C(=O)NCC(C)(C)N)n3)cc2cc1F` [Example 36, N-(2-amino-2-methylpropyl)-6-(5-fluoro-6-methoxy-1H-indol-2-yl)pyrazine-2-carboxamide] showed an EC50 of over 100 nM. With `Cc1c(-c2cncc(C(=O)NCC(C)(C)N)n2)[nH]c2c(F)c(Cl)ccc12` [Example 4, N-(2-amino-2-methylpropyl)-6-(6-chloro-7-fluoro-3-methyl-1H-indol-2-yl)pyrazine-2-carboxamide] the EC50 was under 10 nM. In the case of `Cc1c(-c2cncc(C(=O)NCCC(C)(C)N)n2)[nH]c2ccc(OC(F)(F)F)cc12` [Example 59, N-(3-amino-3-methylbutyl)-6-(3-methyl-5-(trifluoromethoxy)-1H-indol-2-yl)pyrazine-2-carboxamide], the EC50 is reported as under 10 nM. `CC(C)(N)CNC(=O)c1cncc(-c2cc3cc(C(F)(F)F)ccc3[nH]2)n1` [Example 18, N-(2-amino-2-methylpropyl)-6-(5-(trifluoromethyl)-1H-indol-2-yl)pyrazine-2-carboxamide] showed an EC50 of 10 to 100 nM. `CC(C)(N)CNC(=O)c1cncc(-c2cc3cc(F)c(Cl)nc3[nH]2)n1` [Example 33, N-(2-amino-2-methylpropyl)-6-(6-chloro-5-fluoro-1H-pyrrolo[2,3-b]pyridin-2-yl)pyrazine-2-carboxamide] showed an EC50 of over 100 nM. `CC(C)(N)CNC(=O)c1cncc(-c2cc3ccccc3[nH]2)n1` [Example 35, N-(2-amino-2-methylpropyl)-6-(1H-indol-2-yl)pyrazine-2-carboxamide] gave an EC50 of over 100 nM. `Cc1c(-c2cncc(C(=O)NCC(C)(C)N)n2)[nH]c2ccc(S(C)(=O)=O)cc12` [Example 75, N-(2-Amino-2-methylpropyl)-6-(3-methyl-5-(methylsulfonyl)-1H-indol-2-yl)pyrazine-2-carboxamide] showed an EC50 of over 100 nM. Work on `CC(C)c1c(-c2cncc(C(=O)NCC(C)(C)N)n2)[nH]c2ccccc12` [Example 52, N-(2-amino-2-methylpropyl)-6-(3-isopropyl-1H-indol-2-yl)pyrazine-2-carboxamide] yielded an EC50 of 10 to 100 nM. For `CC(C)(N)CNC(=O)c1cncc(-c2cc3cc(C#N)ccc3[nH]2)n1` [Example 104], the EC50 was over 100 nM. Work on `Cc1c(-c2cncc(C(=O)NCC(C)(C)N)n2)[nH]c2ccc(C(=O)NCC(C)(C)N)cc12` [Example 107, N-(2-amino-2-methylpropyl)-2-(6-((2-amino-2-methylpropyl)carbamoyl)pyrazin-2-yl)-3-methyl-1H-indole-5-carboxamide] yielded an EC50 of over 100 nM. For `CC(C)(N)CNC(=O)c1cncc(-c2cc3ccc(C#N)cc3[nH]2)n1` [Example 34, N-(2-amino-2-methylpropyl)-6-(6-cyano-1H-indol-2-yl)pyrazine-2-carboxamide], the EC50 was over 100 nM. For `Cc1c(-c2cncc(C(=O)NCC(C)(C)N)n2)[nH]c2c1CCCC2` [Example 51, N-(2-amino-2-methylpropyl)-6-(3-methyl-4,5,6,7-tetrahydro-1H-indol-2-yl)pyrazine-2-carboxamide], the EC50 was 10 to 100 nM.
